Assay results: patent US20090163586A1, “Bis-(Sulfonylamino) Derivatives in Therapy 205” (AstraZeneca AB, priority 2007, published 2009)

The compounds below were run against T1, human mPGES-1 (Homo sapiens, UniProt O14684) (assay: Microsomal prostaglandin E synthase biochemical assay). Settings: microsome preparation containing human mPGES-1; PGH2 10.8 μM, GSH 2.5 mM, pH 6.8; PGE2 by HTRF; average of at least n=2.
T1 sequence (O14684 1-152): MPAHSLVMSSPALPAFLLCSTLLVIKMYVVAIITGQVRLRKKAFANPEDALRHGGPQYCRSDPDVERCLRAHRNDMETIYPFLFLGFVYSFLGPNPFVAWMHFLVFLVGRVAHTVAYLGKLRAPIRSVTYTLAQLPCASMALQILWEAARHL
Method in brief: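 Human mPGES-1 microsomes at 2 μg/mL were pre-incubated 15 min with compound (60 μM to 0.002 μM) in 50 mM potassium phosphate pH 6.8 with 2.5 mM GSH. The reaction was started with 10.8 μM PGH2 and stopped after 1 minute with acidic ferric chloride/citrate. PGE2 was quantified by HTRF; IC50 is the mean of at least 2 runs.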
COc1ncccc1-c1cccc(S(=O)(=O)Nc2ccccc2S(N)(=O)=O)c1 [Example 167, 3-(2-Methoxypyridin-3-yl)-N-(2-sulfamoylphenyl)benzenesulfonamide] was tested, and the IC50 was 3800 nM.
NS(=O)(=O)c1c(F)cccc1NS(=O)(=O)/C=C/c1ccc(-c2ccco2)cc1 [Example 36, 2-Fluoro-6-[[(E)-2-[4-(2-furyl)phenyl]ethenyl]sulfonylamino]benzenesulfonamide] showed an IC50 of 57 nM.
Compound NS(=O)(=O)c1cc(F)ccc1NS(=O)(=O)/C=C/c1ccc(-c2ccccc2)cc1 [Example 52, 5-Fluoro-2-[[(E)-2-(4-phenylphenyl)ethenyl]sulfonylamino]benzenesulfonamide] has an IC50 of 84 nM.
NS(=O)(=O)c1cc(F)ccc1NS(=O)(=O)/C=C/c1cccc(C(F)(F)F)c1 [Example 54, 5-Fluoro-2-[[(E)-2-[3-(trifluoromethyl)phenyl]ethenyl]sulfonylamino]-benzenesulfonamide] was tested, and the IC50 was 270 nM.
CSc1ccc(/C=C/S(=O)(=O)Nc2cccc(F)c2S(N)(=O)=O)cc1 [Example 39, 2-Fluoro-6-[[(E)-2-(4-methylsulfanylphenyl)ethenyl]sulfonylamino]-benzenesulfonamide] gave an IC50 of 1400 nM.
Work on NS(=O)(=O)c1ccc(F)cc1NS(=O)(=O)/C=C/c1ccc(-c2cc3ccccc3o2)cc1 [Example 5, 2-[[(E)-2-(4-Benzofuran-2-ylphenyl)ethenyl]sulfonylamino]-4-fluoro-benzenesulfonamide] yielded an IC50 of 40 nM.
In the case of COc1ncc(-c2cccc(S(=O)(=O)Nc3ccccc3S(N)(=O)=O)c2)c(OC)n1 [Example 118, 3-(2,4-Dimethoxypyrimidin-5-yl)-N-(2-sulfamoylphenyl)benzenesulfonamide], the IC50 is reported as 4700 nM.
For CC(Cc1ccc(Cl)cc1)S(=O)(=O)Nc1ccccc1S(N)(=O)=O (centres unmarked) [Example 7, 2-[1-(4-Chlorophenyl)propan-2-ylsulfonylamino]benzenesulfonamide], the IC50 was 280 nM.
With C/C(=C\c1ccc(Cl)cc1)S(=O)(=O)Nc1ccccc1S(N)(=O)=O [Example 9, 2-[[(E)-1-(4-Chlorophenyl)prop-1-en-2-yl]sulfonylamino]benzenesulfonamide] the IC50 was 610 nM.
NS(=O)(=O)c1cnccc1NS(=O)(=O)CCc1ccc(-c2cc3ccccc3o2)cc1 [Example 204, 4-(2-(4-(Benzofuran-2-yl)phenyl)ethylsulfonamido)pyridine-3-sulfonamide] was tested, and the IC50 was 620 nM.
N#Cc1ccc(-c2cccc(S(=O)(=O)Nc3ccccc3S(N)(=O)=O)c2)cc1 [Example 117, 2-[[3-(4-Cyanophenyl)phenyl]sulfonylamino]benzenesulfonamide] was tested, and the IC50 was 1300 nM.
Work on NS(=O)(=O)c1ccccc1NS(=O)(=O)c1cccc(-c2cc(F)cc(F)c2)c1 [Example 114, 2-[[3-(3,5-difluorophenyl)phenyl]sulfonylamino]benzenesulfonamide] yielded an IC50 of 830 nM.
NS(=O)(=O)c1cc(CO)ccc1NS(=O)(=O)c1cccc(Cl)c1Cl [Example 153, 2-(2,3-Dichloro-benzenesulfonylamino)-5-hydroxymethyl-benzenesulfonamide] was tested, and the IC50 was 3200 nM.
NS(=O)(=O)c1ccccc1NS(=O)(=O)c1cccc(-c2ccc(C(F)(F)F)cc2)c1 [Example 134, 2-[[3-[4-(Trifluoromethyl)phenyl]phenyl]sulfonylamino]benzenesulfonamide] gave an IC50 of 3700 nM.
CC(C)(C)C#Cc1ccc(CCS(=O)(=O)Nc2ccccc2S(N)(=O)=O)cc1 [Example 183, 2-(2-(4-(3,3-dimethylbut-1-ynyl)phenyl)ethylsulfonamido)benzenesulfonamide] showed an IC50 of 81 nM.
With CC(C)(C)C#Cc1cccc(S(=O)(=O)Nc2ccccc2S(N)(=O)=O)c1 [Example 185, 3-(3,3-Dimethylbut-1-ynyl)-N-(2-sulfamoylphenyl)benzenesulfonamide] the IC50 was 2500 nM.
Compound COc1ccc(-c2cccc(S(=O)(=O)Nc3ccccc3S(N)(=O)=O)c2)cn1 [Example 138, 3-(6-Methoxypyridin-3-yl)-N-(2-sulfamoylphenyl)benzenesulfonamide] has an IC50 of 570 nM.
NS(=O)(=O)c1ccccc1NS(=O)(=O)CCc1ccc(-c2ccc(C(F)(F)F)cc2)cc1 [Example 224, 2-(2-(4′-(trifluoromethyl)biphenyl-4-yl)ethylsulfonamido)benzenesulfonamide] gave an IC50 of 100 nM.
In the case of NS(=O)(=O)c1cc(F)ccc1NS(=O)(=O)/C=C/c1ccc(Cl)cc1 [Example 22, 2-[[(E)-2-(4-Chlorophenyl)ethenyl]sulfonylamino]-5-fluoro-benzenesulfonamide], the IC50 is reported as 430 nM.
In the case of CSc1ccc(/C=C/S(=O)(=O)Nc2ccccc2S(N)(=O)=O)cc1 [Example 40, 2-[[(E)-2-(4-Methylsulfanylphenyl)ethenyl]sulfonylamino]benzenesulfonamide], the IC50 is reported as 1200 nM.
Work on NS(=O)(=O)c1ccccc1NS(=O)(=O)c1cccc(-c2cccc(OC(F)(F)F)c2)c1 [Example 121, 2-[[3-[3-(Trifluoromethoxy)phenyl]phenyl]sulfonylamino]benzenesulfonamide] yielded an IC50 of 220 nM.
NS(=O)(=O)c1ccc(F)cc1NS(=O)(=O)/C=C/c1ccc(Cl)c(Cl)c1 [Example 23, 2-[[(E)-2-(3,4-Dichlorophenyl)ethenyl]sulfonylamino]-4-fluoro-benzenesulfonamide] was tested, and the IC50 was 270 nM.
Compound NS(=O)(=O)c1ccccc1NS(=O)(=O)c1cc(Cl)c(Cl)s1 [Example 160, 4,5-Dichloro-N-(2-sulfamoylphenyl)thiophene-2-sulfonamide] has an IC50 of 1200 nM.
Compound Cc1nc(-c2cccc(S(=O)(=O)Nc3ccccc3S(N)(=O)=O)c2)cs1 [Example 191, 3-(2-Methylthiazol-4-yl)-N-(2-sulfamoylphenyl)benzenesulfonamide] has an IC50 of 8300 nM.
NS(=O)(=O)c1ccccc1NS(=O)(=O)c1cccc(-c2ccc3[nH]ccc3c2)c1 [Example 120, 2-[[3-(1H-Indol-5-yl)phenyl]sulfonylamino]benzenesulfonamide] gave an IC50 of 3300 nM.
Compound CC(C)(C)c1ccc(CCS(=O)(=O)Nc2cc(F)ccc2S(N)(=O)=O)cc1 [Example 71, 4-Fluoro-2-[2-(4-tert-butylphenyl)ethylsulfonylamino]benzenesulfonamide] has an IC50 of 300 nM.
In the case of NS(=O)(=O)c1ccc(F)cc1NS(=O)(=O)/C=C/c1cccc(C(F)(F)F)c1 [Example 61, 4-Fluoro-2-[[(E)-2-[3-(trifluoromethyl)phenyl]ethenyl]sulfonylamino]-benzenesulfonamide], the IC50 is reported as 2400 nM.
In the case of NS(=O)(=O)c1cc(O)ccc1NS(=O)(=O)c1cccc(Cl)c1Cl [Example 157, 2-(2,3-Dichloro-benzenesulfonylamino)-5-hydroxy-benzenesulfonamide], the IC50 is reported as 1100 nM.
With C/C(=C\c1ccc(Cl)cc1)S(=O)(=O)Nc1c(F)cccc1S(N)(=O)=O [Example 14, 2-[[(E)-1-(4-Chlorophenyl)prop-1-en-2-yl]sulfonylamino]-3-fluoro-benzenesulfonamide] the IC50 was 3100 nM.
With Cc1cc(NC(=O)Nc2ccc(Cl)cc2)ccc1S(=O)(=O)Nc1ccccc1S(N)(=O)=O [Example 176, 3-(4-Chlorophenyl)-1-[3-methyl-4-[(2-sulfamoylphenyl)sulfamoyl]phenyl]urea] the IC50 was 900 nM.
In the case of Cc1ccncc1-c1cccc(S(=O)(=O)Nc2ccccc2S(N)(=O)=O)c1 [Example 166, 3-(4-Methylpyridin-3-yl)-N-(2-sulfamoylphenyl)benzenesulfonamide], the IC50 is reported as 4800 nM.
Compound COc1ccccc1/C=C/S(=O)(=O)Nc1ccccc1S(N)(=O)=O [Example 83, 2-[[(E)-2-(2-Methoxyphenyl)ethenyl]sulfonylamino]benzenesulfonamide] has an IC50 of 430 nM.
With NS(=O)(=O)c1ccccc1NS(=O)(=O)c1cccc(-c2ccccc2)c1 [Example 129, 3-Phenyl-N-(2-sulfamoylphenyl)benzenesulfonamide] the IC50 was 2500 nM.
Compound CCOc1ccccc1/C=C/S(=O)(=O)Nc1ccccc1S(N)(=O)=O [Example 222, 2-[2-(2-ethoxy-phenyl)-ethenesulfonylamino]-benzenesulfonamide] has an IC50 of 380 nM.
NS(=O)(=O)c1c(NS(=O)(=O)CCc2ccc(-c3ccco3)cc2)ccc2c1CCC2 [Example 234, 5-(2-(4-(Furan-2-yl)phenyl)ethylsulfonamido)-2,3-dihydro-1H-indene-4-sulfonamide] showed an IC50 of 6200 nM.
In the case of Cc1ccc(NS(=O)(=O)c2cccc(-c3ccc(Cl)c(Cl)c3)c2)c(S(N)(=O)=O)c1 [Example 150, 2-[[3-(3,4-Dichlorophenyl)phenyl]sulfonylamino]-5-methyl-benzenesulfonamide], the IC50 is reported as 4200 nM.
Compound CC(C)(C)C#Cc1ccc(CCS(=O)(=O)Nc2ccccc2S(N)(=O)=O)cn1 [Example 187, 2-(2-(6-(3,3-Dimethylbut-1-ynyl)pyridin-3-yl)ethylsulfonamido)benzenesulfonamide] has an IC50 of 680 nM.
NS(=O)(=O)c1cc(F)c(F)cc1NS(=O)(=O)c1cccc(Cl)c1Cl [Example 178, 2,3-Dichloro-N-(4,5-difluoro-2-sulfamoylphenyl)benzenesulfonamide] showed an IC50 of 2700 nM.
For CSc1ccc(/C=C/S(=O)(=O)Nc2cc(F)ccc2S(N)(=O)=O)cc1 [Example 37, 4-Fluoro-2-[[(E)-2-(4-methylsulfanylphenyl)ethenyl]sulfonylamino]-benzenesulfonamide], the IC50 was 160 nM.
NS(=O)(=O)c1ccc(Cl)cc1NS(=O)(=O)CCc1ccc(OC(F)F)cc1 [Example 226, 4-Chloro-2-(2-(4-(difluoromethoxy)phenyl)ethylsulfonamido)benzenesulfonamide] gave an IC50 of 1300 nM.
In the case of NS(=O)(=O)c1ccccc1NS(=O)(=O)CCc1ccc(C2CCCC2)cc1 [Example 69, 2-[2-(4-Cyclopentylphenyl)ethylsulfonylamino]benzenesulfonamide], the IC50 is reported as 270 nM.
